Measurements from ChEMBL document CHEMBL5608189, “Design and synthesis of unique indole-benzosulfonamide oleanolic acid derivatives as potent antibacterial agents against MRSA” (Eur J Med Chem, 2024).
Converted amounts (≈) assume the structure as drawn. The source made the active and inactive calls. The rule behind the calls is not given here.

What was measured:
[1] = test system: Staphylococcus epidermidis; experiment: Antibacterial activity against Staphylococcus epidermidis ATCC 12228 measured after 24 hrs by susceptibility assay; type: functional
Staphylococcus aureus [2] = experiment: Antibacterial activity against methicillin-resistant Staphylococcus aureus measured after 24 hrs by susceptibility assay; type: functional
Staphylococcus aureus [3] = experiment: Antibacterial activity against Staphylococcus aureus ATCC 29213 measured after 24 hrs by susceptibility assay; type: functional
Staphylococcus aureus [4] = experiment: Bactericidal activity against Staphylococcus aureus ATCC 6538 measured after 24 hrs; type: functional
Staphylococcus aureus [5] = experiment: Bactericidal activity against Staphylococcus aureus ATCC 29213 measured after 24 hrs; type: functional
[6] = test system: Staphylococcus epidermidis; experiment: Bactericidal activity against Staphylococcus epidermidis ATCC 12228 measured after 24 hrs; type: functional
Staphylococcus aureus [7] = experiment: Bactericidal activity against methicillin-resistant Staphylococcus aureus measured after 24 hrs; type: functional
Staphylococcus aureus [8] = experiment: Antibacterial activity against Staphylococcus aureus ATCC 6538 assessed as inhibition of bacterial growth at 1 times MIC measured every 2 hrs for 24 hrs by time kill assay; type: functional, organism-based
[9] = test system: Staphylococcus epidermidis; experiment: Antibacterial activity against Staphylococcus epidermidis ATCC 12228 assessed as inhibition of bacterial growth at 1 times MIC measured every 2 hrs for 24 hrs by time kill assay; type: functional, organism-based
Staphylococcus aureus [10] = experiment: Antibacterial activity against Staphylococcus aureus ATCC 6538 assessed as delay in bacterial growth at 0.5 times MIC measured every 2 hrs for 24 hrs by time kill assay; type: functional, organism-based
[11] = test system: Staphylococcus epidermidis; experiment: Antibacterial activity against Staphylococcus epidermidis ATCC 12228 assessed as inhibition of bacterial growth at 2 to 4 times MIC measured every 2 hrs for 24 hrs by time kill assay relative to control; type: functional
Staphylococcus aureus [12] = experiment: Antibacterial activity against methicillin-resistant Staphylococcus aureus assessed as inhibition of bacterial growth at 2 to 4 times MIC measured every 2 hrs for 24 hrs by time kill assay relative to control; type: functional
[13] = Hemolytic activity in rabbit red blood cells assessed as hemolytic rate at 128 times MIC measured after 1 hr by absorbance based method relative to control; type: toxicity, cell-based, Oryctolagus cuniculus, Erythrocyte; details: rabbit red blood cells (erythrocytes), read-out: Activity
Staphylococcus aureus [14] = experiment: Resistant development in methicillin-resistant Staphylococcus aureus assessed as increase in MIC at sub-MIC measured after 20 passages; type: functional, organism-based
Staphylococcus aureus [15] = experiment: Antibiofilm activity in methicillin-resistant Staphylococcus aureus assessed as inhibition of biofilm formation at 16 times MIC measured after 24 hrs by crystal violet staining based analysis relative to control; type: functional
Staphylococcus aureus [16] = experiment: Antibiofilm activity in methicillin-resistant Staphylococcus aureus assessed as eradication of formed biofilm by measuring reduction in biofilm mass at 1 times MIC measured after 24 hrs by crystal violet staining based analysis relative to control; type: functional; design: scale not given: the % may be the effect or the level left
Staphylococcus aureus [17] = experiment: Antibacterial activity against methicillin-resistant Staphylococcus aureus assessed as reduction in metabolic activity at 1 to 8 times MIC measured after 24 hrs by alamar blue assay; type: functional, organism-based
Staphylococcus aureus [18] = experiment: Antibacterial activity against methicillin-resistant Staphylococcus aureus assessed as reduction in metabolic activity at 8 times MIC measured after 24 hrs by alamar blue assay relative to control; type: functional; design: scale not given: the % may be the effect or the level left
Cell membrane [19] = experiment: Disruption of cell membrane integrity in methicillin-resistant Staphylococcus aureus assessed as protein leakage at 8 times MIC incubated for 8 hrs by BCA assay; type: cell membranes
Staphylococcus aureus [20] = experiment: Induction of morphological changes in methicillin-resistant Staphylococcus aureus assessed as disruption of cellular structure at 8 times MIC incubated for 8 hrs by SEM analysis; type: functional, organism-based
Staphylococcus aureus [21] = experiment: Induction of morphological changes in methicillin-resistant Staphylococcus aureus assessed as disruption of cell membrane integrity at 8 times MIC incubated for 8 hrs by SEM analysis; type: functional, organism-based
Cell membrane [22] = experiment: Disruption of cell membrane integrity in methicillin-resistant Staphylococcus aureus assessed as leakage of cellular content at 8 times MIC incubated for 8 hrs by TEM analysis; type: cell membranes
Cell membrane [23] = experiment: Induction of cell membrane damage in methicillin-resistant Staphylococcus aureus assessed as increase in red fluorescence in PI channel at 8 times MIC incubated for 4 hrs by Calcein-AM/PI staining based confocal microscopic analysis; type: cell membranes
Cell membrane [24] = experiment: Induction of membrane depolarization in methicillin-resistant Staphylococcus aureus assessed as increase in fluorescence intensity at 1 to 8 times MIC measured after 30 mins by DiSC3(5) dye based spectrofluorometer; type: cell membranes
Cell membrane [25] = experiment: Induction of cell membrane in methicillin-resistant Staphylococcus aureus assessed as increase in fluorescence intensity at 1 to 8 times MIC measured after 30 mins by SYTOX green dye based spectrofluorometer; type: cell membranes
Cell membrane [26] = experiment: Induction of cell membrane in methicillin-resistant Staphylococcus aureus assessed as increase in fluorescence intensity by measuring number of PI-permeable cells at 2 times MIC measured after 2 hrs by PI staining based flow cytometry analysis (reference value: 5.71); type: cell membranes
Cell membrane [27] = experiment: Induction of cell membrane in methicillin-resistant Staphylococcus aureus assessed as increase in fluorescence intensity by measuring number of PI-permeable cells at 8 times MIC measured after 2 hrs by PI staining based flow cytometry analysis (reference value: 5.71); type: cell membranes
HEK-293T = experiment: Cytotoxicity against HEK293T cells assessed as reduction in cell viability upto 64 times MIC incubated for 24 hrs by CCK-8 assay; type: toxicity, cell-based; details: human
Staphylococcus aureus [28] = experiment: Antibacterial activity against methicillin-resistant Staphylococcus aureus infected in female C57BL/6 mouse wound model assessed as log reduction in viable bacterial count at 30 mg/kg administered twice on wounds with 6 hrs interval and measured for 7 days; type: functional; details: time 7 day
Staphylococcus aureus [29] = experiment: Antibacterial activity against methicillin-resistant Staphylococcus aureus infected in female C57BL/6 mouse wound model assessed as reduction in wound area at 30 mg/kg administered twice on wounds with 6 hrs interval and measured for 7 days; type: functional, organism-based; details: time 7.0 day
[30] = Toxicity in female C57BL/6 mouse assessed as erythema in skin at 10 to 30 mg/kg administered daily for 3 days; type: organism-based; details: in vivo, 72 h, dose 10-30 mg/kg, time 3 day
[31] = Toxicity in female C57BL/6 mouse assessed as edema in skin at 10 to 30 mg/kg administered daily for 3 days; type: organism-based; details: in vivo, 72 h, dose 10-30 mg/kg, time 3 day
[32] = Toxicity in female C57BL/6 mouse assessed as changes in skin tissue at 10 to 30 mg/kg administered daily for 3 days and measured on day 4 by H and E staining based microscopic analysis; type: organism-based; details: in vivo, 96 h, dose 10-30 mg/kg, time 4 day
Staphylococcus aureus [33] = experiment: Induction of intracellular ROS accumulation in methicillin-resistant Staphylococcus aureus assessed as number of fluorescence cells at 1 times MIC incubated for 6 hrs by DCFH-DA staining based flow cytometry analysis (reference value: 3.88)
Staphylococcus aureus [34] = experiment: Induction of intracellular ROS accumulation in methicillin-resistant Staphylococcus aureus assessed as number of fluorescence cells at 2 times MIC incubated for 6 hrs by DCFH-DA staining based flow cytometry analysis (reference value: 3.88)
Staphylococcus aureus [35] = experiment: Induction of intracellular ROS accumulation in methicillin-resistant Staphylococcus aureus assessed as number of fluorescence cells at 4 times MIC incubated for 6 hrs by DCFH-DA staining based flow cytometry analysis (reference value: 3.88)

CC1(C)CC[C@]2(C(=O)NS(=O)(=O)c3ccc(Cl)cc3)CC[C@]3(C)C(=CC[C@@H]4[C@@]5(C)Cc6c([nH]c7c(C(=O)O)cccc67)C(C)(C)[C@@H]5CC[C@]43C)[C@@H]2C1
MIC [1]: 2 µM (≈ 1.49 µg/mL)
MIC (Staphylococcus aureus [2]): 1 µM (≈ 0.745 µg/mL)
MIC (Staphylococcus aureus [3]): 2 µM (≈ 1.49 µg/mL)
MBC (Staphylococcus aureus [4]): 2 µM (≈ 1.49 µg/mL)
MBC (Staphylococcus aureus [5]): 2 µM (≈ 1.49 µg/mL)
MBC [6]: 2 µM (≈ 1.49 µg/mL)
MBC (Staphylococcus aureus [7]): 4 µM (≈ 2.98 µg/mL)
Activity (Staphylococcus aureus [8]): Active
Activity [9]: Active
Activity (Staphylococcus aureus [10]): Active
inhibition (INH) [11]: 100%
inhibition (INH) (Staphylococcus aureus [12]): 100%
hemolysis at 1 h, 128 times MIC [13]: < 5%
Activity (Staphylococcus aureus [14]): inactive
inhibition (INH) (Staphylococcus aureus [15]): 81%
Activity (Staphylococcus aureus [16]): 52%
Activity (Staphylococcus aureus [17]): Dose-Dependent Effect
Activity (Staphylococcus aureus [18]): 55%
Activity (Cell membrane [19]): 168 µg/mL
Activity (Staphylococcus aureus [20]): Active
Activity (Staphylococcus aureus [21]): Active
Activity (Cell membrane [22]): Active
Activity (Cell membrane [23]): Active
Activity (Cell membrane [24]): Dose-Dependent Effect
Activity (Cell membrane [25]): Dose-Dependent Effect
Activity (Cell membrane [26]): 11.6
Activity (Cell membrane [27]): 46.5
Activity (HEK-293T): Non-Toxic
log(activity) (Staphylococcus aureus [28]): 2.5
Activity (Staphylococcus aureus [29]): Active
Activity [30]: Non-Toxic
Activity [31]: Non-Toxic
Activity [32]: Non-Toxic
Activity (Staphylococcus aureus [33]): 1.96
Activity (Staphylococcus aureus [34]): 1.57
Activity (Staphylococcus aureus [35]): 1.91
